Data reported in patent publication US20230310634A1, “ANTI-HUMAN VISTA ANTIBODIES AND USE THEREOF” (IMMUNEXT, INC., priority 2020, published 2023).
“Also recorded” adds a separate entry of the source.

Key:
[1] = system: LPS stimulated human PBMCs; assay: In vitro potency of steroid payloads in LPS stimulated human PBMCs (IL-1β, IL-6 ELISA); format: cell-based
[2] = system: FKBP5; assay: FKBP5 transcriptional activation in isolated human Tregs (qRT-PCR); format: cell-based; settings: Experiment 3; 20 nM payload or molar equivalent; 2 donors
Source text: (§1) To monitor/confirm GC delivery and activity, we measured by quantitative Real Time PCR (qRT-PCR) the transcriptional activation of FKBP5 that is a direct and robust biomarker of glucocorticoid activity (JCEM 101: 4305-4312, 2016). We conducted this assessment on isolated human monocytes, regulatory T cells (T regs) and B cells following in vitro treatment with ADCs.
For monocytes vs B cell analyses, one blood donor collection was used for the single drug concentration experiment; blood from a separate single donor collection was used to assess drug dose response. For the regulatory T cell (Treg) analysis, blood from two separate donors was used.
(§2) The various immune populations were isolated using different cell isolation kits and following manufacturer instructions: • EasySep Human monocyte enrichment kit without CD16 depletion (StemCell cat #19058) • Pan B cell isolation kit, human (Miltenyi Biotec, 130-101-638) • EasySep™ Human CD4^+ CD127 low CD49d− regulatory T cell enrichment Kit (StemCell cat #19232) […]
(§3) After one wash with PBS, RNA was isolated from cell pellets using either the RNeasy Plus Mini kit (Qiagen, PN: 74136) or NucleoSpin RNA Plus (Macherey-Nagel #740984.250). […] RNA concentration was assessed by UV spectroscopy using a Nanodrop 2000. […]
(§4) Quantitative Real-Time PCR was done using Taqman master mix 2× kit (#4369016) and run on a QuantStudio3 from Applied Biosystem. […]

[3] = system: FKBP5; assay: FKBP5 transcriptional activation in isolated human monocytes (qRT-PCR); format: cell-based; settings: Experiment 1; 20 nM payload or molar equivalent; 1 day; relative to no-treatment control
Source text: as §1
(§5) Monocytes or B cells were isolated from healthy donor blood samples and treated with free steroid, anti-VISTA conjugated steroid, or conjugated isotype control. RNA was isolated, and change in FKBP5 transcript level assessed by qPCR.
as §2, §3, §4

[4] = system: FKBP5; assay: FKBP5 transcriptional activation in isolated human B cells (qRT-PCR); format: cell-based; settings: Experiment 1; 20 nM payload or molar equivalent; 1 day; relative to no-treatment control
Source text: as §1, §5, §2, §3, §4

[5] = system: FKBP5; assay: FKBP5 transcription in peritoneal resident macrophages and spleen monocytes after in vivo treatment; parameters: species or system mice; settings: from other studies (previous example)
Procedure: ADCs were then injected from 17 h to 7 days before mouse euthanasia and cell isolation.
After euthanasia, mice were injected in the peritoneal cavity with 7 ml of PBS/0.5% BSA/2 mM EDTA. After a brief massage of the peritoneum, a small incision was performed and the peritoneal lavage collected. PRM were isolated using negative selection (Miltenyi kit, ref 130-110-434). Spleen were dissected and dissociated mechanically; monocytes were isolated using […] (Stem Cell, EasySep™ Mouse CD11 b Positive Selection Kit II).
Cell pellets from different tissues were resuspended in 0.4 ml RNeasy lysis buffer from RNeasy Plus Mini kit (Qiagen, PN: 74136) and homogenize with 20G needle for 5 times. RNA was isolated following manufacturer's instructions and RNA eluted in […] H2O (RNase/DNase free). RNA concentration was assessed on Nanodrop.
Reverse transcription was done using Taqman reverse transcription reagents (#N8080234) and following manufacturer's instructions. Quantitative Real-Time PCR was done using Taqman master mix 2× kit (#4369016) and Taqman primers for mouse FKBP5 (Mm00487401_m1), and mouse HPRT as housekeeping gene (Mm446968_m1) and run on a QuantStudio3 from Applied Biosystem. […]

[6] = Plasma corticosterone levels after repeated treatment; format: in vivo, mice; settings: bleed on day 5
Procedure: Based on the foregoing we assessed the impact of long-term treatment with an exemplary antibody drug conjugate (ADC) INX201J, and an anti-human VISTA monoclonal antibody linked to a glucocorticoid (GC) payload, on the HPA axis, specifically the corticosterone basal levels. […] The experiment was performed in female mice that were first acclimated for a week to a specific handler that would carry subsequently all injections and bleed to limit stress-induced changes in basal level of GC.
On day 5, mice were bled and their corticosterone levels assessed by ELISA.
The experiment was performed in female hVISTA KI mice. […] A control group was included that received daily PBS injections. On day 5, mice were bled and their plasma corticosterone levels assessed by ELISA.
The ELISA was conducted following the manufacturer's included protocol using Arbor Assays (cat #K014-H5) Corticosterone 5 pack ELISA Kit.

[7] = mouse, in vivo; cited from earlier work

Compound: C[C@]12C=CC(=O)C=C1CC[C@@H]1[C@@H]2[C@@H](O)C[C@@]2(C)[C@H]1C[C@H]1O[C@@H](c3ccc(CC45CC(N)(C4)C5)cc3)O[C@]12C(=O)CO [INX-SM-3, (6aR,6bS,7S,8aS,8bS,10R,11aR,12aS,12bS)-10-(4-((3-aminobicyclo[1.1.1]pentan-1-yl)methyl)phenyl)-7-hydroxy-8b-(2-hydroxyacetyl)-6a,8a-dimethyl-1,2,6a,6b,7,8,8a,8b,11a,12,12a,12b-dodecahydro-4H-naphtho[2′,1′:4,5]indeno[1,2-d][1,3]dioxol-4-one]
- steroid potency as free payloads in LPS-activated human PBMCS (conclusions) [1]: varying degrees of dose dependent steroid potency
- potency relative to the other compounds of the experiment ([1]; 1 ng/mL LPS, 24 hr): most potent compound among these three; also recorded: most potent compound among these compounds tested
- IL-1β and IL-6 production ([1]; Experiment 1, 1000-1 nM, 1 ng/mL LPS, 24 hr, n=1 donor): inhibit both IL-1β and IL-6 production
- IL-1β production ([1]; Experiment 2, 1000-1 nM, 1 ng/mL LPS, 24 hr, n=1 donor): show inhibition in IL-1β production
- FKBP5 transcription in Tregs [2]: increased FKBP5 transcription

Compound: C[C@]12C=CC(=O)C=C1CC[C@@H]1[C@@H]2[C@@H](O)C[C@@]2(C)[C@H]1C[C@H]1O[C@@H](c3ccc(Cc4cccc(N)c4)cc3)O[C@]12C(=O)CO [free J payload]
- FKBP5 transcription in monocytes [3]: robust increase in FKBP5 transcription
- FKBP5 transcription in B cells [4]: robust increase in FKBP5 transcription

Compound: C[C@@H]1C[C@H]2[C@@H]3CCC4=CC(=O)C=C[C@]4(C)[C@@]3(F)[C@@H](O)C[C@]2(C)[C@@]1(O)C(=O)CO [Dex, Dexamethasone]
- pharmacodynamic range [5]: < 24 h
- basal plasma corticosterone levels ([6]; Dex 0.2 mg/Kg daily for 4 days): limited though significant impact
- basal plasma corticosterone levels ([6]; Dex 2 mg/Kg daily for 4 days): dramatically decreased

Compound: C[C@@H]1C[C@H]2[C@@H]3CCC4=CC(=O)C=C[C@]4(C)[C@@]3(F)[C@@H](O)C[C@]2(C)[C@@]1(O)C(=O)CO [dexamethasone]
- toxicity in this IBD model (literature) [7]: causes toxicity in this IBD model
